Results: patent US20030129255A1, “Colloidal silver suspension for treating skin problems in tropical and decorative fish” (priority 2002, published 2003)

Test system: nitrifying bacteria
Procedure: In accordance with the present invention, a method of treating skin problems in fish comprises adding a teaspoon (5 ml) of a suspension of colloidal silver in which the concentration of silver ranges between 6 ppm and 12 ppm (parts per million) to 10 gallons of water in an aquarium every other day and then changing 50% of the water once a week, so that the water to which the fish to be treated are exposed has a silver concentration initially in the range of 0.77 ppb to 1.5 ppb (parts per billion).

Substance: colloidal silver
- survival of nitrifying bacteria: some nitrifying bacteria can survive this treatment
